Assay results taken from ChEMBL document CHEMBL1129684, “New steroidal diazo ketones as potential photoaffinity labeling reagents for the mineralocorticoid receptor: synthesis and biological activities” (J Med Chem, 1996).

Tests used:
[1] = target: T1, Mineralocorticoid receptor (Homo sapiens, UniProt P08235); experiment: Inhibition of 10e-9 M aldosterone activity in CV-1 cells expressing mineralocorticoid receptor; type: functional, cell-based
T1 sequence (P08235 whole entry): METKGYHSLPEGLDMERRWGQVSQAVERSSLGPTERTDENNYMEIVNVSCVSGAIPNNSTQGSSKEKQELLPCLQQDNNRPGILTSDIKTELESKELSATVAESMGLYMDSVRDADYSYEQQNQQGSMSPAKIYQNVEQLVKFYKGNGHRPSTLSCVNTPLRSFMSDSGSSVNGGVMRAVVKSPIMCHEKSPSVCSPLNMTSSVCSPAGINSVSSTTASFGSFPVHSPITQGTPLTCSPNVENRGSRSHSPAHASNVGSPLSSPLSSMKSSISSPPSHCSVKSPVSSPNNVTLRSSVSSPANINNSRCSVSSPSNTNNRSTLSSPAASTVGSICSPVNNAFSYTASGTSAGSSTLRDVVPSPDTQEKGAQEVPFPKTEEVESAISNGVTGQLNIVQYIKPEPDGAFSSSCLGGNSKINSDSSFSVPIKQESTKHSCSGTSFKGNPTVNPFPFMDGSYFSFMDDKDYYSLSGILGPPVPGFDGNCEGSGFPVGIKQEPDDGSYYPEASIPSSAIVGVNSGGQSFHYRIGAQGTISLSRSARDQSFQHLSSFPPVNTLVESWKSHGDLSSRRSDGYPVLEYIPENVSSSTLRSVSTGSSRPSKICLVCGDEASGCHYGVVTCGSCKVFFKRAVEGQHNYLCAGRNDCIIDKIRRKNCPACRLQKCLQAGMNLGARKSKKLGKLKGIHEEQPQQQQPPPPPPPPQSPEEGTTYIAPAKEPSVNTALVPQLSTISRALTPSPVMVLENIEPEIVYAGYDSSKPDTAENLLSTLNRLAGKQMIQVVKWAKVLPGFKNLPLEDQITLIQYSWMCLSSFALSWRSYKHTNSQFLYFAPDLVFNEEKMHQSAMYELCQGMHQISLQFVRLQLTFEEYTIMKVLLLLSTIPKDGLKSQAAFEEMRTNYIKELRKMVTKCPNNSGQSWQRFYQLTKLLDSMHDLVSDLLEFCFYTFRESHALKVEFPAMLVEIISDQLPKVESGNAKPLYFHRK

[2] = target: T1, Mineralocorticoid receptor; experiment: Affinity for recombinant Mineralocorticoid receptor; details: read-out: Kd app
[3] = target: T2, Mineralocorticoid receptor (Homo sapiens) (UniProt P08235); details: CV-1
T2 sequence (whole entry): T1 sequence (P08235 whole entry)
Description: Transcriptional activation activity in CV-1 cells expressing mineralocorticoid receptor

Row | Compound | IC50 [1] | Kd [2] | ED50 [3]
1 | C[C@@H](O)C1CC[C@H]2[C@@H]3CCC4=CC(=O)CCC4(C)[C@H]3CCC12C(=O)C=[N+]=[N-] (stereo partly specified) | 900 nM | 20 nM | 
2 | CC(=O)C1CC[C@H]2[C@@H]3CCC4=CC(=O)CCC4(C)[C@H]3CCC12C(=O)[CH-][N+]#N (stereo partly specified) | 700 nM | 20 nM | 
3 | CC12CCC(=O)C=C1CCC1C2CCC2(C)C(C(=O)C=[N+]=[N-])CCC12 (stereo unspecified) |  | 0.74 nM | 6 nM
